Here are results for 1 compound from PMC10975498, “Trimethyltin(IV) Bearing 3-(4-Methyl-2-oxoquinolin-1(2H)-yl)propanoate Causes Lipid Peroxidation-Mediated Autophagic Cell Death in Human Melanoma A375 Cells” (Pharmaceuticals, 2024).

The assay deals with T1, Bovine Serum Albumin (BSA) (Bos taurus, UniProt P02769).
T1 construct: gene ALB
Kind of assay: spectrofluorometric titration (tryptophan fluorescence quenching, double-log Stern-Volmer) at […] and […] °C; Kb given is at […] °C. The class given is binding. As to conditions: read-out: spectrofluorometric titration (tryptophan fluorescence quenching, double-log Ste) (converted).

Structures are written as SMILES.

T1 sequence (P02769 25-607): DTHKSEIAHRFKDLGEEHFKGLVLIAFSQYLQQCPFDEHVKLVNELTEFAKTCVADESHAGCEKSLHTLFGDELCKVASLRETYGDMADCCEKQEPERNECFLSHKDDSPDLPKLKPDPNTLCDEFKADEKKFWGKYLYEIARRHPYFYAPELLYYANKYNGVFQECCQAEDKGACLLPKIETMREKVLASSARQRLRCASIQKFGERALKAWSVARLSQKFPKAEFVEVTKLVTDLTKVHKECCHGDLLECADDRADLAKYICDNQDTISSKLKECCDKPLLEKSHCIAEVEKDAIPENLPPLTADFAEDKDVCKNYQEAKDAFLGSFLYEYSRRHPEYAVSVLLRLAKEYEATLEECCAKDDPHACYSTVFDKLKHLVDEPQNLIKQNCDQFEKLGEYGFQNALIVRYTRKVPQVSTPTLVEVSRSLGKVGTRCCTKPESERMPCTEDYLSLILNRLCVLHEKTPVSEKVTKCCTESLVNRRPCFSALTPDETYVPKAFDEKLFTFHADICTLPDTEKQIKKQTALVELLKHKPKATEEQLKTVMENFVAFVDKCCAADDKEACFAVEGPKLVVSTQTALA

In the case of `Cc1cc(=O)n(CCC(=O)[O][Sn]([CH3])([CH3])[CH3])c2ccccc12` [Me3SnL, (3-(4-methyl-2-oxoquinolin-1(2H)-yl)propanoato)trimethyltin(IV)], the Kd is 422 nM.
